These are literature values, as cited in patent US20130129827A1, “EXTENDED RELEASE PHARMACEUTICAL COMPOSITIONS OF PALIPERIDONE AND PROCESSES OF PREPARATION THEREOF” (RANBAXY LABORATORIES LIMITED, priority 2009, published 2013).

For the data set the following is noted: background statement, species not given.

As for `Cc1nc2n(c(=O)c1CCN1CCC(c3noc4cc(F)ccc34)CC1)CCCC2O` (racemic) [Paliperidone, (±)-3-[2-[4-(6-fluoro-1,2-benzisoxazol-3-yl)-1-piperidinyl]ethyl]-6,7,8,9-tetrahydro-9-hydroxy-2-methyl-4H-pyrido[1,2-a]pyrimidin-4-one], the half-life entry is recorded as “about a day”.
